Test results from the kinase profiling compilation of Christmann-Franck et al. (2016).

Legend:
Assay in all cases: KINOMEscan competition binding
Conditions in all cases: compound 10.0 µM
ADCK4 (human) = ADCK4 (human) (UniProt Q96D53)
EPHA6 (human) = EPHA6 (human) (UniProt Q9UF33)
ULK2 (human) = ULK2 (human) (UniProt Q8IYT8)
CIT (human) = CIT (human) (UniProt O14578)
MAPK3 (human) = MAPK3 (human) (UniProt P27361)
DCLK2 (human) = DCLK2 (human) (UniProt Q8N568)
AAK1 (human) = AAK1 (human) (UniProt Q2M2I8)
AXL (human) = AXL (human) (UniProt P30530)
[1] = test system: FLT3 (human), P36888 [N841I]
RIPK2 (human) = RIPK2 (human) (UniProt O43353)
MKNK1 (human) = MKNK1 (human) (UniProt Q9BUB5)
WEE2 (human) = WEE2 (human) (UniProt P0C1S8)
EPHA5 (human) = EPHA5 (human) (UniProt P54756)
SGK110 (human) = SGK110 (human) (UniProt P0C264)
MLTK (human) = MLTK (human) (UniProt Q9NYL2)
CDC42BPA (human) = CDC42BPA (human) (UniProt Q5VT25)
MAP3K7 (human) = MAP3K7 (human) (UniProt O43318)
MAP2K6 (human) = MAP2K6 (human) (UniProt P52564)
PAK4 (human) = PAK4 (human) (UniProt O96013)
WEE1 (human) = WEE1 (human) (UniProt P30291)
[2] = target: JAK1 JH1 catalytic (human) (UniProt P23458)
STK3 (human) = STK3 (human) (UniProt Q13188)
IKBKE (human) = IKBKE (human) (UniProt Q14164)
BRSK2 (human) = BRSK2 (human) (UniProt Q8IWQ3)
STK32B (human) = STK32B (human) (UniProt Q9NY57)
DAPK2 (human) = DAPK2 (human) (UniProt Q9UIK4)
ITK (human) = ITK (human) (UniProt Q08881)
CDK8 (human) = CDK8 (human) (UniProt P49336)
MARK2 (human) = MARK2 (human) (UniProt Q7KZI7)
IRAK3 (human) = IRAK3 (human) (UniProt Q9Y616)
NTRK3 (human) = NTRK3 (human) (UniProt Q16288)
TEC (human) = TEC (human) (UniProt P42680)
[3] = test system: FLT3 (human), P36888 [ITD]
MAP3K4 (human) = MAP3K4 (human) (UniProt Q9Y6R4)
TEK (human) = TEK (human) (UniProt Q02763)
PTK6 (human) = PTK6 (human) (UniProt Q13882)
PDPK1 (human) = PDPK1 (human) (UniProt O15530)
CDK18 (human) = CDK18 (human) (UniProt Q07002)
ULK1 (human) = ULK1 (human) (UniProt O75385)
CSNK1G1 (human) = CSNK1G1 (human) (UniProt Q9HCP0)

Chain of PTK6 (human) (Q13882 whole entry, looked up): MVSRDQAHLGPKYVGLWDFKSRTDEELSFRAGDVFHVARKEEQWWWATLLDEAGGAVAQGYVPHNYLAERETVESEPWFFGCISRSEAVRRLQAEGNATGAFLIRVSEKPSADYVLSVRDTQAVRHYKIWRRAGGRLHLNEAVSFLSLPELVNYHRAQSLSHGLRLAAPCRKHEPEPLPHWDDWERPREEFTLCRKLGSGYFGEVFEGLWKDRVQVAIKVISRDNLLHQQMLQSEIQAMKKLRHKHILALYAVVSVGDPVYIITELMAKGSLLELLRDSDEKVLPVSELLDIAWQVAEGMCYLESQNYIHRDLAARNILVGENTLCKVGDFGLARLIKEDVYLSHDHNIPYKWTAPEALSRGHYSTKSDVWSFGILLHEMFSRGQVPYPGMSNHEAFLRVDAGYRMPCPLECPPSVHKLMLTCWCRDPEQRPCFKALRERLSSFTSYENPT
Chain of MLTK (human) (Q9NYL2 whole entry, looked up): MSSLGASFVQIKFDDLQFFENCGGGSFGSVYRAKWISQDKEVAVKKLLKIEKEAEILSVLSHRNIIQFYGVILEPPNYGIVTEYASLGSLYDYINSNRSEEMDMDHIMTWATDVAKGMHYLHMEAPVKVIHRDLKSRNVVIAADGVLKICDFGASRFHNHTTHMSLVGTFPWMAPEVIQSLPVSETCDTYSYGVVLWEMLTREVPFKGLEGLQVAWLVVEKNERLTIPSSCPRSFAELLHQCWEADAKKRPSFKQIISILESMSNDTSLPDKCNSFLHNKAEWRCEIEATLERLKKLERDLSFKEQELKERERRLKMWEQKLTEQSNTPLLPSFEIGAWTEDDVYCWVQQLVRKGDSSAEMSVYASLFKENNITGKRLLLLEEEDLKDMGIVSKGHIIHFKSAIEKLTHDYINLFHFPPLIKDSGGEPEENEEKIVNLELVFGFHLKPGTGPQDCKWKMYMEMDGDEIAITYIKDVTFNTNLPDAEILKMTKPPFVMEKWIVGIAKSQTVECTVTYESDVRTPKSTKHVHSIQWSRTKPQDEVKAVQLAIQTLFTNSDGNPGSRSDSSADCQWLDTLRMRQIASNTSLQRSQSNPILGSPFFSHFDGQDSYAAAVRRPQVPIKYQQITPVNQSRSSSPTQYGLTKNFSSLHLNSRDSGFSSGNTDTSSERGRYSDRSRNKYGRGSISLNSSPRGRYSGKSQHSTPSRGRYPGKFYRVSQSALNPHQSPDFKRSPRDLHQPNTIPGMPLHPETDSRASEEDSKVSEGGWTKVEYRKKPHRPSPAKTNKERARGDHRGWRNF
Chain of MARK2 (human) (Q7KZI7 whole entry, looked up): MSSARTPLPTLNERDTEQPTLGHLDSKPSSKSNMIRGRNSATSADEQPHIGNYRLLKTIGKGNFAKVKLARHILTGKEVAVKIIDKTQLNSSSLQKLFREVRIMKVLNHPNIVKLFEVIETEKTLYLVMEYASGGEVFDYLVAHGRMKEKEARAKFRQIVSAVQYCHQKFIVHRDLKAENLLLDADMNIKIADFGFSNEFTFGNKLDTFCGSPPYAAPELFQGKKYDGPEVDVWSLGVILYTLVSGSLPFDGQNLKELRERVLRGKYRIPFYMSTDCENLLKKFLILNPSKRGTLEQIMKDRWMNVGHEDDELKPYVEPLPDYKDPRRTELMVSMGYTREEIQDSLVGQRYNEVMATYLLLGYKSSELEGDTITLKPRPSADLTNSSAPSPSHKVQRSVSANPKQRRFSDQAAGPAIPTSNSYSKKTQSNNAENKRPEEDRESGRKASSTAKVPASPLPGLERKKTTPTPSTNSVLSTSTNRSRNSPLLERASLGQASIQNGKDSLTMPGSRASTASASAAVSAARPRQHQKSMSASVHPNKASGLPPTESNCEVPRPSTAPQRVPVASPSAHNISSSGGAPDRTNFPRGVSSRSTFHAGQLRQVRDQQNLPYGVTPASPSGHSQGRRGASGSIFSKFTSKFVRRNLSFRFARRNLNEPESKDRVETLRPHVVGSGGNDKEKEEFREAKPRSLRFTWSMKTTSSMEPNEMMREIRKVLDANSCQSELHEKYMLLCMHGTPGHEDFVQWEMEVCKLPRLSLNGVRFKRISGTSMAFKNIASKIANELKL
Chain of MAP2K6 (human) (P52564 whole entry, looked up): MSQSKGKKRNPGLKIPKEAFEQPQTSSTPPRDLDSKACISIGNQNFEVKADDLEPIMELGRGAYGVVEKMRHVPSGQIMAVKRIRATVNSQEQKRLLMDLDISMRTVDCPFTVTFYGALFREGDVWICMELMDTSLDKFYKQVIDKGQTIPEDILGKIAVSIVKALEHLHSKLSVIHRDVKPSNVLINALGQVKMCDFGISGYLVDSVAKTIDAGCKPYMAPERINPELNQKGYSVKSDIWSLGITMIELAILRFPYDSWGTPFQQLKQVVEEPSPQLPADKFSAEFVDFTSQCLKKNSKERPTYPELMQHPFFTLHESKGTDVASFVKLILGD
Chain of PDPK1 (human) (O15530 whole entry, looked up): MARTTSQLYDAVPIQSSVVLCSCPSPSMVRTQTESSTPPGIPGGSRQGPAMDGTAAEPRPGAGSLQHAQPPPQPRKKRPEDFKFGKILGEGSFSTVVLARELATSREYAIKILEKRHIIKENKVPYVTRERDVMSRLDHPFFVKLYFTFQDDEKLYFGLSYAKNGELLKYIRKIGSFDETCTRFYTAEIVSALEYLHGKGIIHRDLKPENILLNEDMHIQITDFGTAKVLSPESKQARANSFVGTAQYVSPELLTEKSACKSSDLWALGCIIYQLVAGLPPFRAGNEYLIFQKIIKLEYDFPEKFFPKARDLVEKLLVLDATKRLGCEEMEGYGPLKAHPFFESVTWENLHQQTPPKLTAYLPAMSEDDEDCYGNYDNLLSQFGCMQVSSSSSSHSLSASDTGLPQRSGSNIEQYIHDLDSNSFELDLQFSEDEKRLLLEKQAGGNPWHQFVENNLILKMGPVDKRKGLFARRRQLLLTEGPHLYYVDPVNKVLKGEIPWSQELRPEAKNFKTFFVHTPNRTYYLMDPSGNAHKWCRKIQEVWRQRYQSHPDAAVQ
Chain of MAP3K7 (human) (O43318 whole entry, looked up): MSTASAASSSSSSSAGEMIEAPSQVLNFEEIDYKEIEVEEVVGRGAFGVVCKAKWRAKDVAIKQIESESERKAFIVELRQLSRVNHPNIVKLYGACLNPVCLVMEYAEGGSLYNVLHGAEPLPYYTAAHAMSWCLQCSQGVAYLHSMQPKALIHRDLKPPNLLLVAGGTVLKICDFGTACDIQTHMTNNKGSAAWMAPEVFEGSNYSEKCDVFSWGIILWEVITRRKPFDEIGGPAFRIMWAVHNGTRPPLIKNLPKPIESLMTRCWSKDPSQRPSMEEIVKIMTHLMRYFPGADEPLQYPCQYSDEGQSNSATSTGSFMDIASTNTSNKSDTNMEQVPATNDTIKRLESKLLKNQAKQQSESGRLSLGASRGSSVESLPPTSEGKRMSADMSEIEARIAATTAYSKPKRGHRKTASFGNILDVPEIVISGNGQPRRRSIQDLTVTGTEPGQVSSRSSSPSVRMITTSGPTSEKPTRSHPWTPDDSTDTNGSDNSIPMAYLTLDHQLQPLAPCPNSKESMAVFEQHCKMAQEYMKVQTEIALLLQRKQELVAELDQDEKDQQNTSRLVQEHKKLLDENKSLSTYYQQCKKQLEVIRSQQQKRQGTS
Chain of CDK8 (human) (P49336 whole entry, looked up): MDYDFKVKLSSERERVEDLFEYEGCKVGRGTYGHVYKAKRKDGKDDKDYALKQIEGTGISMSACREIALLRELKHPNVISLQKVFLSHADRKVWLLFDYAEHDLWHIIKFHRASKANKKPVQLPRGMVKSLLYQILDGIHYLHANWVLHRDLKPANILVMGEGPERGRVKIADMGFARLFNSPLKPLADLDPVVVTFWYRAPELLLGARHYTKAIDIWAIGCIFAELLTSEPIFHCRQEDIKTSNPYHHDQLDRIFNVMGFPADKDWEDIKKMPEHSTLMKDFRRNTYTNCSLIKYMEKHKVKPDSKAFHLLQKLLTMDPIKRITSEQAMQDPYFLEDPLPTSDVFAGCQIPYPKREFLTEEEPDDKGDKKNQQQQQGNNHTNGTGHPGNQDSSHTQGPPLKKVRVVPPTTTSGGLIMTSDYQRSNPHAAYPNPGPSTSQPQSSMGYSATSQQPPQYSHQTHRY
Chain of IKBKE (human) (Q14164 whole entry, looked up): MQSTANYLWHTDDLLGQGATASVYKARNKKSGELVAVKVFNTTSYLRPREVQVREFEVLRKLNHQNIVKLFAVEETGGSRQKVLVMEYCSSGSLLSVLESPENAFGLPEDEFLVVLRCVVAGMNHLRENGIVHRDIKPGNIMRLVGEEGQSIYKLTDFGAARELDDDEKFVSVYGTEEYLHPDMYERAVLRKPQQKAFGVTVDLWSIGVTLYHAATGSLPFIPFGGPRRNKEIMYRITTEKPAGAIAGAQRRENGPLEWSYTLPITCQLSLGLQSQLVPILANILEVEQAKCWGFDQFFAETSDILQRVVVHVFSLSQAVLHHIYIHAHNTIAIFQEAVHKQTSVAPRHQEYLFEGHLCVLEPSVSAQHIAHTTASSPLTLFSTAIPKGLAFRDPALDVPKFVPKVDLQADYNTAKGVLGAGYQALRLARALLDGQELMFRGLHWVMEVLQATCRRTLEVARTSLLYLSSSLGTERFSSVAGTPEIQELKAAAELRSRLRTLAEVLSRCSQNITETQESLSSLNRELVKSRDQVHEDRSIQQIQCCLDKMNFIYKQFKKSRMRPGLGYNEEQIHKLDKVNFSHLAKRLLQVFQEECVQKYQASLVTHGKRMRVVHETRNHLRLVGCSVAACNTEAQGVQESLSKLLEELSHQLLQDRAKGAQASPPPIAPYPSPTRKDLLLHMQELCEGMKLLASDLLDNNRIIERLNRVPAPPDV

Row | kinase still bound, per cent of control (ADCK4 (human)) [%] | kinase still bound, per cent of control (EPHA6 (human)) [%] | kinase still bound, per cent of control (ULK2 (human)) [%] | kinase still bound, per cent of control (CIT (human)) [%] | kinase still bound, per cent of control (MAPK3 (human)) [%] | kinase still bound, per cent of control (DCLK2 (human)) [%] | kinase still bound, per cent of control (AAK1 (human)) [%] | kinase still bound, per cent of control (AXL (human)) [%] | kinase still bound, per cent of control [1] [%] | kinase still bound, per cent of control (RIPK2 (human)) [%] | kinase still bound, per cent of control (MKNK1 (human)) [%] | kinase still bound, per cent of control (WEE2 (human)) [%] | kinase still bound, per cent of control (EPHA5 (human)) [%] | kinase still bound, per cent of control (SGK110 (human)) [%] | kinase still bound, per cent of control (MLTK (human)) [%] | kinase still bound, per cent of control (CDC42BPA (human)) [%] | kinase still bound, per cent of control (MAP3K7 (human)) [%] | kinase still bound, per cent of control (MAP2K6 (human)) [%] | kinase still bound, per cent of control (PAK4 (human)) [%] | kinase still bound, per cent of control (WEE1 (human)) [%] | Structure (SMILES) | also measured
1 | 100 | 100 | 100 | 100 | 100 | 100 | 21 | 100 | 100 | 100 | 100 | 100 | 100 | 100 | 100 | 100 | 100 | 100 | 100 | 100 | OCCCNc1cc(-c2ccnc(Nc3cccc(Cl)c3)n2)ccn1 | kinase still bound, per cent of control [2]: 100%; kinase still bound, per cent of control (STK3 (human)): 100%; kinase still bound, per cent of control (IKBKE (human)): 100%; kinase still bound, per cent of control (BRSK2 (human)): 100%; kinase still bound, per cent of control (STK32B (human)): 100%; kinase still bound, per cent of control (DAPK2 (human)): 100%; kinase still bound, per cent of control (ITK (human)): 100%; kinase still bound, per cent of control (CDK8 (human)): 100%; kinase still bound, per cent of control (MARK2 (human)): 100%; kinase still bound, per cent of control (IRAK3 (human)): 100%; kinase still bound, per cent of control (NTRK3 (human)): 100%; kinase still bound, per cent of control (TEC (human)): 100%; kinase still bound, per cent of control [3]: 100%; kinase still bound, per cent of control (MAP3K4 (human)): 100%; kinase still bound, per cent of control (TEK (human)): 100%; kinase still bound, per cent of control (PTK6 (human)): 100%; kinase still bound, per cent of control (PDPK1 (human)): 100%; kinase still bound, per cent of control (CDK18 (human)): 100%; kinase still bound, per cent of control (ULK1 (human)): 100%; kinase still bound, per cent of control (CSNK1G1 (human)): 100%
2 | 100 | 100 | 100 | 100 | 100 | 19 | 100 | 100 | 100 | 100 | 100 | 100 | 100 | 100 | 100 | 100 | 100 | 100 | 100 | 100 | COc1cc(C(=O)NC2CCN(C)CC2)ccc1Nc1ncc2c(n1)N(C1CCCC1)C(C)CC(=O)N2C (stereo not given) | kinase still bound, per cent of control [2]: 100%; kinase still bound, per cent of control (STK3 (human)): 100%; kinase still bound, per cent of control (IKBKE (human)): 100%; kinase still bound, per cent of control (BRSK2 (human)): 100%; kinase still bound, per cent of control (STK32B (human)): 100%; kinase still bound, per cent of control (DAPK2 (human)): 100%; kinase still bound, per cent of control (ITK (human)): 100%; kinase still bound, per cent of control (CDK8 (human)): 100%; kinase still bound, per cent of control (MARK2 (human)): 100%; kinase still bound, per cent of control (IRAK3 (human)): 100%; kinase still bound, per cent of control (NTRK3 (human)): 100%; kinase still bound, per cent of control (TEC (human)): 100%; kinase still bound, per cent of control [3]: 100%; kinase still bound, per cent of control (MAP3K4 (human)): 100%; kinase still bound, per cent of control (TEK (human)): 100%; kinase still bound, per cent of control (PTK6 (human)): 100%; kinase still bound, per cent of control (PDPK1 (human)): 100%; kinase still bound, per cent of control (CDK18 (human)): 100%; kinase still bound, per cent of control (ULK1 (human)): 100%; kinase still bound, per cent of control (CSNK1G1 (human)): 100%

Row | Structure (SMILES) | kinase still bound, per cent of control (ADCK4 (human)) [%] | kinase still bound, per cent of control (EPHA6 (human)) [%] | kinase still bound, per cent of control (ULK2 (human)) [%] | kinase still bound, per cent of control (CIT (human)) [%] | kinase still bound, per cent of control (MAPK3 (human)) [%] | kinase still bound, per cent of control (DCLK2 (human)) [%] | kinase still bound, per cent of control (AAK1 (human)) [%] | kinase still bound, per cent of control (AXL (human)) [%] | kinase still bound, per cent of control [1] [%] | kinase still bound, per cent of control (RIPK2 (human)) [%] | kinase still bound, per cent of control (MKNK1 (human)) [%] | kinase still bound, per cent of control (WEE2 (human)) [%] | kinase still bound, per cent of control (EPHA5 (human)) [%] | kinase still bound, per cent of control (SGK110 (human)) [%] | kinase still bound, per cent of control (MLTK (human)) [%] | kinase still bound, per cent of control (CDC42BPA (human)) [%] | kinase still bound, per cent of control (MAP3K7 (human)) [%] | kinase still bound, per cent of control (MAP2K6 (human)) [%] | kinase still bound, per cent of control (PAK4 (human)) [%] | kinase still bound, per cent of control (WEE1 (human)) [%] | also measured
3 | Cc1ccc(NC(=O)c2cccc(C(C)(C)C#N)c2)cc1Nc1ccc2ncn(C)c(=O)c2c1 | 100 | 0 | 100 | 0.05 | 100 | 100 | 100 | 75 | 62 | 7 | 100 | 100 | 1 | 100 | 6.5 | 100 | 17 | 100 | 72 | 100 | kinase still bound, per cent of control [2]: 100%; kinase still bound, per cent of control (STK3 (human)): 100%; kinase still bound, per cent of control (IKBKE (human)): 100%; kinase still bound, per cent of control (BRSK2 (human)): 100%; kinase still bound, per cent of control (STK32B (human)): 100%; kinase still bound, per cent of control (DAPK2 (human)): 100%; kinase still bound, per cent of control (ITK (human)): 100%; kinase still bound, per cent of control (CDK8 (human)): 22%; kinase still bound, per cent of control (MARK2 (human)): 92%; kinase still bound, per cent of control (IRAK3 (human)): 95%; kinase still bound, per cent of control (NTRK3 (human)): 38%; kinase still bound, per cent of control (TEC (human)): 100%; kinase still bound, per cent of control [3]: 78%; kinase still bound, per cent of control (MAP3K4 (human)): 100%; kinase still bound, per cent of control (TEK (human)): 62%; kinase still bound, per cent of control (PTK6 (human)): 94%; kinase still bound, per cent of control (PDPK1 (human)): 100%; kinase still bound, per cent of control (CDK18 (human)): 100%; kinase still bound, per cent of control (ULK1 (human)): 94%; kinase still bound, per cent of control (CSNK1G1 (human)): 88%
